# ChEMBL document CHEMBL1201862, “PubChem BioAssay data set” (2004)
#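 Grown in 96-well plates, cells were treated for 48 hours with each compound at five concentrations. Insufficient inhibition: endpoint recorded as highest concentration tested. GI50 is the concentration that inhibits growth by half.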 Active and inactive are the calls of the source. Cut-off read from the data, not from the text of the source: active = GI50 up to about 1.1 µM and inactive = higher.
# Legend:
# Assay in all cases: inhibition of tumour cell growth, NCI panel, 48 h
# SK-MEL-5 = test system: SK-MEL-5
# NCI-H522 = test system: NCI-H522
# NCI-H23 = test system: NCI-H23
# HCT-15 = test system: HCT-15
# UACC-62 = test system: UACC-62
# UO-31 = test system: UO-31
# IGROV-1 = test system: IGROV-1
# HOP-92 = test system: HOP-92
# HOP-18 = test system: HOP-18
# NCI-H226 = test system: NCI-H226
# ACHN = test system: ACHN
# U-251 = test system: U-251
# SW-620 = test system: SW-620
# CAKI-1 = test system: CAKI-1
# HCC 2998 = test system: HCC 2998
# DMS-114 = test system: DMS-114
# M14 = test system: M14
# OVCAR-5 = test system: OVCAR-5
# HL-60 = test system: HL-60
# K562 = test system: K562
# SF-539 = test system: SF-539
# OVCAR-4 = test system: OVCAR-4
# SF-268 = test system: SF-268
# SNB-78 = test system: SNB-78
# HT-29 = test system: HT-29
# OVCAR-3 = test system: OVCAR-3
# SNB-75 = test system: SNB-75
# 786-0 = test system: 786-0
# RXF 393 = test system: RXF 393
# SN12C = test system: SN12C
# LOX IMVI = test system: LOX IMVI
# COLO 205 = test system: COLO 205
# RPMI-8226 = test system: RPMI-8226
# SK-MEL-2 = test system: SK-MEL-2
# SK-OV-3 = test system: SK-OV-3
# DMS-273 = test system: DMS-273
# EKVX = test system: EKVX
# SF-295 = test system: SF-295
# HCT-116 = test system: HCT-116
# DLD-1 = test system: DLD-1
# OVCAR-8 = test system: OVCAR-8
# MOLT-4 = test system: MOLT-4
# CCRF-CEM = test system: CCRF-CEM
# SR = test system: SR
# SNB-19 = test system: SNB-19
# M19-MEL = test system: M19-MEL
# TK-10 = test system: TK-10
# KM-20L2 = test system: KM-20L2
# A498 = test system: A498
# Malme-3M = test system: Malme-3M
# NCI-H460 = test system: NCI-H460
# KM12 = test system: KM12
# A549 = test system: A549
# HOP-62 = test system: HOP-62
# SK-MEL-28 = test system: SK-MEL-28
# XF498 = test system: XF498
# MCF7 = test system: MCF7
# UACC-257 = test system: UACC-257
# NCI/ADR-RES = test system: NCI/ADR-RES
smiles,measurement,setting,value
CC(=O)/C=C/c1ccc(C2CC(C)=Nc3c(ccc4c3C(=O)c3ccccc3C4=O)N2)cc1 (stereo not given),GI50,SK-MEL-5,86.5 µM (inactive)
same,GI50,NCI-H522,> 20 µM (inactive)
same,GI50,NCI-H23,> 67.3 µM (inactive)
same,GI50,HCT-15,27.2 µM
same,GI50,UACC-62,59.7 µM (inactive)
same,GI50,UO-31,4.88 µM (inactive)
same,GI50,IGROV-1,9.12 µM (inactive)
same,GI50,HOP-92,28.2 µM (inactive)
same,GI50,HOP-18,> 80.9 µM (inactive)
same,GI50,NCI-H226,32.2 µM (inactive)
same,GI50,ACHN,19 µM (inactive)
same,GI50,U-251,59.7 µM (inactive)
same,GI50,SW-620,38.5 µM (inactive)
same,GI50,CAKI-1,6.98 µM (inactive)
same,GI50,HCC 2998,> 100 µM (inactive)
same,GI50,DMS-114,34.9 µM (inactive)
same,GI50,M14,77.3 µM (inactive)
same,GI50,OVCAR-5,> 86.5 µM (inactive)
same,GI50,HL-60,0.944 µM (active)
same,GI50,K562,> 57.5 µM (inactive)
same,GI50,SF-539,63.8 µM (inactive)
same,GI50,OVCAR-4,> 85.9 µM (inactive)
same,GI50,SF-268,> 71 µM (inactive)
same,GI50,SNB-78,> 100 µM (inactive)
same,GI50,HT-29,> 100 µM (inactive)
same,GI50,OVCAR-3,> 93.8 µM (inactive)
same,GI50,SNB-75,14.8 µM (inactive)
same,GI50,786-0,54.6 µM (inactive)
same,GI50,RXF 393,92 µM (inactive)
same,GI50,SN12C,> 81.5 µM (inactive)
same,GI50,LOX IMVI,8.83 µM (inactive)
same,GI50,COLO 205,60.7 µM (inactive)
same,GI50,RPMI-8226,> 52.4 µM (inactive)
same,GI50,SK-MEL-2,> 29.6 µM (inactive)
same,GI50,SK-OV-3,15.9 µM (inactive)
same,GI50,DMS-273,66.1 µM (inactive)
same,GI50,EKVX,27.3 µM (inactive)
same,GI50,SF-295,> 100 µM (inactive)
same,GI50,HCT-116,33 µM (inactive)
same,GI50,DLD-1,24.7 µM (inactive)
same,GI50,OVCAR-8,28.2 µM (inactive)
same,GI50,MOLT-4,> 100 µM (inactive)
same,GI50,CCRF-CEM,1.28 µM (inactive)
same,GI50,SR,> 100 µM (inactive)
same,GI50,SNB-19,> 100 µM (inactive)
same,GI50,M19-MEL,> 62.5 µM (inactive)
same,GI50,TK-10,8.89 µM (inactive)
same,GI50,KM-20L2,> 100 µM (inactive)
same,GI50,A498,33.3 µM (inactive)
same,GI50,Malme-3M,89.1 µM (inactive)
same,GI50,NCI-H460,30 µM (inactive)
same,GI50,KM12,3.37 µM (inactive)
same,GI50,A549,> 40.1 µM (inactive)
same,GI50,HOP-62,58.1 µM (inactive)
same,GI50,SK-MEL-28,> 100 µM (inactive)
same,GI50,XF498,> 100 µM (inactive)
CC[C@](C)(O)C(=O)O[C@H]1C(=O)O[C@@H]2C[C@H]3C(C)=C[C@H](O)[C@@H](O)[C@]3(C)[C@H]3[C@@]4(O)OC[C@]32[C@@H]1[C@@H](C)[C@H]4O,GI50,SK-MEL-5,9.48 µM (inactive)
same,GI50,NCI-H522,3.58 µM (inactive)
same,GI50,MCF7,11.6 µM (inactive)
same,GI50,NCI-H23,5.78 µM (inactive)
same,GI50,HCT-15,58.2 µM
same,GI50,UACC-62,19.3 µM (inactive)
same,GI50,UO-31,96.2 µM (inactive)
same,GI50,IGROV-1,7.19 µM (inactive)
same,GI50,HOP-92,4.28 µM (inactive)
same,GI50,HOP-18,59.7 µM (inactive)
same,GI50,NCI-H226,17.7 µM (inactive)
same,GI50,U-251,12 µM (inactive)
same,GI50,UACC-257,47.8 µM (inactive)
same,GI50,SW-620,12.4 µM (inactive)
same,GI50,CAKI-1,27.5 µM (inactive)
same,GI50,HCC 2998,14.1 µM (inactive)
same,GI50,DMS-114,3.68 µM (inactive)
same,GI50,OVCAR-5,104 µM (inactive)
same,GI50,HL-60,7.85 µM (inactive)
same,GI50,K562,8.3 µM (inactive)
same,GI50,SF-539,12.5 µM (inactive)
same,GI50,OVCAR-4,58.6 µM (inactive)
same,GI50,SF-268,52.5 µM (inactive)
same,GI50,SNB-78,29.2 µM (inactive)
same,GI50,HT-29,29.9 µM (inactive)
same,GI50,OVCAR-3,13.5 µM (inactive)
same,GI50,SNB-75,24.2 µM (inactive)
same,GI50,RXF 393,0.631 µM (active)
same,GI50,SN12C,73.5 µM (inactive)
same,GI50,LOX IMVI,14.5 µM (inactive)
same,GI50,COLO 205,32.7 µM (inactive)
same,GI50,RPMI-8226,4.34 µM (inactive)
same,GI50,SK-MEL-2,37.7 µM (inactive)
same,GI50,NCI/ADR-RES,> 205 µM (inactive)
same,GI50,SK-OV-3,71.9 µM (inactive)
same,GI50,DMS-273,17.9 µM (inactive)
same,GI50,EKVX,9.33 µM (inactive)
same,GI50,SF-295,46.5 µM (inactive)
same,GI50,HCT-116,14.7 µM (inactive)
same,GI50,DLD-1,6.11 µM (inactive)
same,GI50,OVCAR-8,34 µM (inactive)
same,GI50,MOLT-4,6.93 µM (inactive)
same,GI50,CCRF-CEM,4.19 µM (inactive)
same,GI50,SNB-19,9.79 µM (inactive)
same,GI50,M19-MEL,11 µM (inactive)
same,GI50,KM-20L2,47.1 µM (inactive)
same,GI50,A498,30.2 µM (inactive)
same,GI50,Malme-3M,8.93 µM (inactive)
same,GI50,NCI-H460,9.73 µM (inactive)
same,GI50,KM12,21.6 µM (inactive)
same,GI50,A549,61.8 µM (inactive)
same,GI50,HOP-62,35.1 µM (inactive)
same,GI50,SK-MEL-28,17.3 µM (inactive)
same,GI50,XF498,11.9 µM (inactive)
